In ChEMBL document CHEMBL4382257, “Identification and Profiling of Hydantoins-A Novel Class of Potent Antimycobacterial DprE1 Inhibitors” (J Med Chem, 2018):

Columns and labels:
physchem = details: buffer, pH 7.4, logD
[1] = Intrinsic clearance in human liver microsomes at 0.5 uM after 30 mins in presence of NADPH by LC-MS/MS analysis; assay type: ADME, Microsome; details: 0.5 h
[2] = Intrinsic clearance in mouse liver microsomes at 0.5 uM after 30 mins in presence of NADPH by LC-MS/MS analysis; assay type: ADME, Microsome; details: 0.5 h

chromatographic logD (physchem) | CLH [1] | CLH [2] | Compound
3.94 | – | – | CC1(c2ccc(C#N)nc2)NC(=O)N(CC(=O)c2ccc(F)cc2F)C1=O (stereo unspecified)
5.41 | – | – | Cc1ccc(C2(C)NC(=O)N(CC(=O)c3ccc(F)cc3F)C2=O)cc1 (stereo unspecified)
5.13 | – | – | CC1(c2ccc(OC(F)F)cc2)NC(=O)N(CC(=O)c2cccc(F)c2)C1=O (stereo unspecified)
4.84 | – | – | COc1ccc(C2(C)NC(=O)N(CC(=O)c3ccc(F)cc3F)C2=O)cc1F (stereo unspecified)
4.72 | – | – | COc1ccc(C2(C)CN(CC(=O)c3ccc(F)cc3F)C(=O)N2)cc1 (stereo in doubt; 151a)
5.05 | – | – | COc1ccc(C2(C)NC(=O)N(CC(=O)c3ccc(F)cc3F)C2=O)c(F)c1 (stereo unspecified)
6.8 | – | – | O=C(CN1C(=O)NC(c2ccc(Br)cc2)(C(F)(F)F)C1=O)c1ccc(F)cc1F (stereo unspecified)
3.04 | – | – | CC1(c2ccncc2)NC(=O)N(CC(=O)c2ccc(F)cc2F)C1=O (stereo unspecified)
5.54 | – | – | CC1(c2ccc(Cl)cc2)NC(=O)N(CC(=O)c2ccc(F)cc2F)C1=O (stereo unspecified)
5.08 | – | – | CC1(c2ccc(OC(F)F)cc2)NC(=O)N(CC(=O)c2ccc(F)cc2)C1=O (stereo unspecified)
6.74 | – | – | CC1(c2ccc(Br)cc2)CCN(CC(=O)c2ccc(F)cc2F)C1=O (stereo unspecified)
3.57 | 0.47 mL/min/g | 3.29 mL/min/g | CC1(c2ccc(NS(C)(=O)=O)cc2)NC(=O)N(CC(=O)c2ccc(F)cc2F)C1=O (stereo unspecified)
6.17 | – | – | CCC1(c2ccc(Br)cc2)NC(=O)N(CC(=O)c2ccc(F)cc2F)C1=O (stereo unspecified)
3.43 | – | – | COc1ccc(C2(C)NC(=O)N(C(=O)c3ccc(F)cc3F)C2=O)cc1 (stereo unspecified)
4.51 | – | – | C[C@@]1(c2ccc(C#N)cc2)NC(=O)N(CC(=O)c2ccc(F)cc2F)C1=O
5.71 | – | – | O=C(CN1C(=O)NC2(CCc3cc(Br)ccc32)C1=O)c1ccc(F)cc1F (stereo unspecified)
3.72 | – | – | CC1(c2ccc(Cl)cc2)NC(=O)N(C(=O)c2ccc(F)cc2F)C1=O (stereo unspecified)
5.72 | – | – | CC1(c2cccc(Br)c2)NC(=O)N(CC(=O)c2ccc(F)cc2F)C1=O (stereo unspecified)
3.64 | 0.46 mL/min/g | 2.5 mL/min/g | CC1(c2ccc(S(C)(=O)=O)cc2)NC(=O)N(CC(=O)c2ccc(F)cc2F)C1=O (stereo unspecified)
5.42 | – | – | COc1ccc(F)cc1C(=O)CN1C(=O)NC(C)(c2ccc(OC(F)F)cc2)C1=O (stereo unspecified)
5.68 | < 0.4 mL/min/g | 1.48 mL/min/g | CC1(c2ccc(Br)cc2)NC(=O)N(CC(=O)c2ccc(F)cc2F)C1=O (stereo unspecified)
6.86 | – | – | CC1(c2ccc(Br)cc2)CC(=O)N(CC(=O)c2ccc(F)cc2F)C1=O (stereo unspecified)
3.89 | – | – | CC1(c2ccc(C#N)cc2)NC(=O)N(CC(=O)c2ncc(F)cc2F)C1=O (stereo unspecified)
3.84 | – | – | CC1(c2ccc(-n3ccnc3)cc2)NC(=O)N(CC(=O)c2ccc(F)cc2F)C1=O (stereo unspecified)
6.05 | – | – | CC1(c2ccc(OC(F)(F)F)cc2)NC(=O)N(CC(=O)c2ccc(F)cc2F)C1=O (stereo unspecified)
4.54 | 0.49 mL/min/g | 3.52 mL/min/g | CC1(c2ccc(C#N)cc2)NC(=O)N(CC(=O)c2ccc(F)cc2F)C1=O (stereo unspecified)

chromatographic logD (physchem) | CLH [1] | CLH [2] | Compound
4.67 | – | – | CC1(c2ccc(C#N)s2)NC(=O)N(CC(=O)c2ccc(F)cc2F)C1=O (stereo unspecified)
4.99 | – | – | CCC1(c2ccc(C#N)cc2)NC(=O)N(CC(=O)c2ccc(F)cc2F)C1=O (stereo unspecified)
5.43 | – | – | CCOc1ccc(C2(C)NC(=O)N(CC(=O)c3ccc(F)cc3F)C2=O)cc1 (stereo unspecified)
4.51 | – | – | C[C@]1(c2ccc(C#N)cc2)NC(=O)N(CC(=O)c2ccc(F)cc2F)C1=O
6.64 | – | – | CCCC1(c2ccc(Br)cc2)NC(=O)N(CC(=O)c2ccc(F)cc2F)C1=O (stereo unspecified)
5.22 | – | – | CN1C(=O)N(CC(=O)c2ccc(F)cc2F)C(=O)C1(C)c1ccc(C#N)cc1 (stereo unspecified)
4.87 | – | – | CC1(c2ccc(Br)cn2)NC(=O)N(CC(=O)c2ccc(F)cc2F)C1=O (stereo unspecified)
3.97 | – | – | CC1(c2ccc(C#N)cn2)NC(=O)N(CC(=O)c2ccc(F)cc2F)C1=O (stereo unspecified)
4.96 | – | – | COc1cccc(C2(C)NC(=O)N(CC(=O)c3ccc(F)cc3F)C2=O)c1 (stereo unspecified)
6.57 | – | – | CC(C)C1(c2ccc(Br)cc2)NC(=O)N(CC(=O)c2ccc(F)cc2F)C1=O (stereo unspecified)
5.5 | – | – | COc1cc(C2(C)NC(=O)N(CC(=O)c3ccc(F)cc3F)C2=O)ccc1OC(F)F (stereo unspecified)
6.01 | – | – | CC1(c2ccc(C(F)(F)F)cc2)NC(=O)N(CC(=O)c2ccc(F)cc2F)C1=O (stereo unspecified)
3.67 | – | – | CC1(c2cccc(NS(C)(=O)=O)c2)NC(=O)N(CC(=O)c2ccc(F)cc2F)C1=O (stereo unspecified)
3.59 | – | – | CC1(c2ccc(C#N)cc2)NC(=O)N(CC(=NO)c2ccc(F)cc2F)C1=O (stereo in doubt; 43b)
4.67 | – | – | CC1(c2ccc(Br)nc2)NC(=O)N(CC(=O)c2ccc(F)cc2F)C1=O (stereo unspecified)
5.8 | – | – | CC1(c2ccc(Br)cc2F)NC(=O)N(CC(=O)c2ccc(F)cc2F)C1=O (stereo unspecified)
4.45 | – | – | CC1(c2ccc(N3CCOCC3)cc2)NC(=O)N(CC(=O)c2ccc(F)cc2F)C1=O (stereo unspecified)
4.51 | – | – | CC1(c2cccc(C#N)c2)NC(=O)N(CC(=O)c2ccc(F)cc2F)C1=O (stereo unspecified)
5.23 | – | – | CC1(c2ccc(OC(F)F)cc2)NC(=O)N(CC(=O)c2ccccc2F)C1=O (stereo unspecified)
5.28 | – | – | CC1(c2ccc(Cl)cc2)NC(=O)N(CC(=O)c2ccc(F)cc2)C1=O (stereo unspecified)
4.78 | – | – | COc1ccc(C2(C)NC(=O)N(CC(=O)c3ccc(F)cc3F)C2=O)cc1 (stereo unspecified)
4.47 | – | – | COc1cc(C2(C)NC(=O)N(CC(=O)c3ccc(F)cc3F)C2=O)cc(OC)c1OC (stereo unspecified)
3.28 | – | – | CC(=O)Nc1ccc(C2(C)NC(=O)N(CC(=O)c3ccc(F)cc3F)C2=O)cc1 (stereo unspecified)
3.38 | – | – | CC1(c2ccc(N)cc2)NC(=O)N(CC(=O)c2ccc(F)cc2F)C1=O (stereo unspecified)
4.21 | – | – | CC1(c2ccc(C#N)cc2)NC(=O)N(CC2(c3ccc(F)cc3F)COC2)C1=O (stereo unspecified)
5.77 | – | – | CC(=O)N1C(=O)N(CC(=O)c2ccc(F)cc2F)C(=O)C1(C)c1ccc(C#N)cc1 (stereo unspecified)

The remaining lines, values behind:

Compound | chromatographic logD (physchem) | CLH [1] | CLH [2]
COc1ccc(C(=O)CN2C(=O)NC(C)(c3ccc(C#N)cc3)C2=O)cc1 (stereo unspecified) | 4.25 | – | –
CC1(c2ccc(OC(F)F)cc2)NC(=O)N(CC(=O)c2ccc3c(c2)OCO3)C1=O (stereo unspecified) | 4.9 | – | –
COc1ccc(C2(C)NC(=O)N(CC(=O)c3ccc(F)cc3)C2=O)cc1 (stereo unspecified) | 4.53 | – | –
CC1(c2ccc(OC(F)F)cc2)NC(=O)N(CC(=O)c2nccs2)C1=O (stereo unspecified) | 4.45 | – | –
COc1ccc(C2(C)NC(=O)N(CCC(=O)c3ccc(F)cc3)C2=O)cc1 (stereo unspecified) | 4.6 | – | –
CC1(c2ccc(Cl)cc2)NC(=O)N(CCC(=O)c2ccc(F)cc2)C1=O (stereo unspecified) | 5.35 | – | –
CC1(c2ccc(C#N)cc2)NC(=O)N(Cc2ccc(F)cc2)C1=O (stereo unspecified) | 4.5 | – | –
CC1(c2ccc(C#N)cc2)NC(=O)N(CC(F)(F)c2ccc(F)cc2F)C1=O (stereo unspecified) | 5.1 | – | –
N#Cc1ccc(-c2cnn(CC(=O)c3ccc(F)cc3F)c2)cc1 | 5.17 | – | –
CC1(c2ccc(OC(F)F)cc2)NC(=O)N(CC(=O)c2ccncc2)C1=O (stereo unspecified) | 3.52 | – | –
CC1(c2ccc(OC(F)F)cc2)NC(=O)N(CC(=O)c2cccnc2)C1=O (stereo unspecified) | 3.54 | – | –
CC1(c2ccc(C#N)cc2)NC(=O)N(CC(=O)c2cccc([N+](=O)[O-])c2)C1=O (stereo unspecified) | 4.25 | – | –
CC1(c2ccc(OC(F)F)cc2)NC(=O)N(CC(=O)N2CCCCC2)C1=O (stereo unspecified) | 4.03 | – | –
CC1(c2ccc(OC(F)F)cc2)NC(=O)N(CC(=O)c2ccccc2)C1=O (stereo unspecified) | 4.97 | – | –
COc1cccc(C(=O)CN2C(=O)NC(C)(c3ccc(C#N)cc3)C2=O)c1 (stereo unspecified) | 4.39 | – | –
CC1(c2ccc(OC(F)F)cc2)NC(=O)N(CC(=O)c2ccc(Cl)s2)C1=O (stereo unspecified) | 5.49 | – | –
N#Cc1ccc(-c2cn(CC(=O)c3ccc(F)cc3F)cn2)cc1 | 4.58 | – | –
COc1ccccc1C(=O)CN1C(=O)NC(C)(c2ccc(C#N)cc2)C1=O (stereo unspecified) | 4.45 | – | –
CC1(c2ccc(OC(F)F)cc2)NC(=O)N(CC(=O)c2cccs2)C1=O (stereo unspecified) | 4.59 | – | –
CC1(c2ccc(C#N)cc2)NC(=O)N(CCC(=O)c2ccc(F)cc2)C1=O (stereo unspecified) | 4.4 | – | –
COc1ccc(-c2cn(CC(=O)c3ccc(F)cc3F)cn2)cc1 | 4.68 | – | –

Compound | chromatographic logD (physchem) | CLH [1] | CLH [2]
CC1(c2ccc(Cl)cc2)NC(=O)N(CCc2ccc(F)cc2)C1=O (stereo unspecified) | 5.68 | – | –
CC1(c2ccc(C#N)cc2)NC(=O)N(C2Cc3cc(F)cc(F)c3C2=O)C1=O (stereo unspecified) | 4.33 | – | –
CC1(c2ccc(C#N)cc2)NC(=O)N(CC(=O)C23CC4CC(CC(C4)C2)C3)C1=O (stereo unspecified) | 6.31 | – | –
COc1ccc(C2(C)NC(=O)N(CCc3ccc(F)cc3)C2=O)cc1 (stereo unspecified) | 4.84 | – | –
CC1(c2ccc(C#N)cc2)NC(=O)N(CC(=O)c2cccc(C(F)(F)F)c2)C1=O (stereo unspecified) | 5.3 | – | –
CC1(c2ccc(C#N)cc2)NC(=O)N(CCc2ccc(F)cc2)C1=O (stereo unspecified) | 4.56 | – | –
CC1(c2ccc(OC(F)F)cc2)NC(=O)N(CC(=O)c2ccccn2)C1=O (stereo unspecified) | 4.35 | – | –
CC1(c2ccc(C#N)cc2)NC(=O)N(CC(=O)C2CCCCC2)C1=O (stereo unspecified) | 5.07 | – | –
CC1(c2ccc(Cl)cc2)NC(=O)N(Cc2ccc(F)cc2)C1=O (stereo unspecified) | 5.59 | – | –
CC1(c2ccc(C#N)cc2)NC(=O)N(CC(=O)c2nccs2)C1=O (stereo unspecified) | 3.42 | – | –
Cc1ccc(C)c(C(=O)CN2C(=O)NC(C)(c3ccc(OC(F)F)cc3)C2=O)c1 (stereo unspecified) | 5.97 | – | –
COc1ccc(C(=O)CN2C(=O)NC(C)(c3ccc(OC(F)F)cc3)C2=O)cc1F (stereo unspecified) | 5.03 | – | –
CC1(c2ccc(C#N)cc2)NC(=O)N(CC(=O)c2ccc(F)cc2)C1=O (stereo unspecified) | 4.26 | – | –
CC1(c2ccc(OC(F)F)cc2)NC(=O)N(CC(=O)c2ccc[nH]2)C1=O (stereo unspecified) | 3.91 | – | –
COc1ccc(C2(C)NC(=O)N(Cc3ccc(F)cc3)C2=O)cc1 (stereo unspecified) | 4.72 | – | –
COc1ccc(C2(C)NC(=O)N(CC(O)c3ccc(F)cc3F)C2=O)cc1 (stereo unspecified) | 3.96 | – | –
Cc1ccc(C(=O)CN2C(=O)NC(C)(c3ccc(OC(F)F)cc3)C2=O)s1 (stereo unspecified) | 5.06 | – | –
Cc1cc(C(=O)CN2C(=O)NC(C)(c3ccc(OC(F)F)cc3)C2=O)c(C)[nH]1 (stereo unspecified) | 4.12 | – | –
COc1ccc(C(=O)CN2C(=O)NC(C)(c3ccc(OC(F)F)cc3)C2=O)cc1 (stereo unspecified) | 4.92 | – | –
CC1(c2ccc(OC(F)F)cc2)NC(=O)N(CC(=O)N2CCCC2)C1=O (stereo unspecified) | 3.37 | – | –
